Measured values reported in patent US7521207B2, “Rhesus monkey Nur77” (Merck & Co., Inc., priority 2005, dated 2009).

Key:
[1] = system: Nur77 expression in 22RV1 cells; assay: Expression of Nur77 in prostrate cancer cells (FIG. 5); type: cell-based; conditions: prostrate cancer cells (22RV1 cells), to various extents
[2] = system: Nur77 expression in the seminal vesicles; conditions: orchiectomized (ORX) rats, FIG. 6, to various extents

## C[C@]12CCC(=O)C[C@@H]1CC[C@@H]1[C@@H]2CC[C@]2(C)[C@@H](O)CC[C@@H]12 [DHT, dihydrotestosterone]
[1]
  expression of Nur77: can be controlled
[2]
  expression of Nur77: can be modulated
